Legend:
Assay type in all cases: cell-based
[1] = test system: prostate cancer cell lines; assay: In vitro activity against prostate cancer cell lines (panel range); settings: Homo sapiens, read-out: GI50 values, range over the listed compounds and the panel
Protocol: (§1) The in vitro anticancer activity studies for these amidobenzothiazoles were carried out at the National Cancer Institute, Maryland, USA.
(§2) The amidobenzothiazoles have been tested against sixty human tumor cell lines derived from nine cancer types (leukemia cancer cell line, non-small cell lung cancer cell line, colon cancer cell line, CNS cancer cell line, melanoma cancer cell line, ovarian cancer cell line, renal cancer cell line, prostate cancer cell line and breast cancer cell lines). For these compounds results are expressed in GI50 values of that particular cancer cell at micro molar (μM) concentration as per NCI protocol.

[2] = test system: M14; assay: In vitro cytotoxicity, NCI screen: M14 (Melanoma); settings: Homo sapiens; M14, Melanoma panel, NCI protocol; read-out: GI50 values (μM conc.)
Protocol: as §1, §2

[3] = test system: MOLT-4; assay: In vitro cytotoxicity, NCI screen: MOLT-4 (Leukemia); settings: Homo sapiens; MOLT-4, Leukemia panel, NCI protocol; read-out: GI50 values (μM conc.)
Protocol: as §1, §2

[4] = test system: SN12C; assay: In vitro cytotoxicity, NCI screen: SN12C (Renal); settings: Homo sapiens, Renal panel, NCI protocol, read-out: GI50 values (μM conc.)
Protocol: as §1, §2

[5] = test system: LOX IMVI; assay: In vitro cytotoxicity, NCI screen: LOX IMVI (Melanoma); settings: Homo sapiens, Melanoma panel, NCI protocol, read-out: GI50 values (μM conc.)
Protocol: as §1, §2

[6] = test system: MCF7; assay: In vitro cytotoxicity, NCI screen: MCF7 (Breast); settings: Homo sapiens; MCF7, Breast panel, NCI protocol; read-out: GI50 values (μM conc.)
Protocol: as §1, §2

[7] = test system: HOP-92; assay: In vitro cytotoxicity, NCI screen: HOP-92 (Non-small cell lung); settings: Homo sapiens; HOP-92, Non-small cell lung panel, NCI protocol; read-out: GI50 values (μM conc.)
Protocol: as §1, §2

[8] = test system: NCI-H522; assay: In vitro cytotoxicity, NCI screen: NCI-H522 (Non-small cell lung); settings: Homo sapiens; NCI-H522, Non-small cell lung panel, NCI protocol; read-out: GI50 values (μM conc.)
Protocol: as §1, §2

[9] = test system: PC-3; assay: In vitro cytotoxicity, NCI screen: PC-3 (Prostate); settings: Homo sapiens; PC-3, Prostate panel, NCI protocol; read-out: GI50 values (μM conc.)
Protocol: as §1, §2

[10] = test system: CAKI-1; assay: In vitro cytotoxicity, NCI screen: CAKI-1 (Renal); settings: Homo sapiens; CAKI-1, Renal panel, NCI protocol; read-out: GI50 values (μM conc.)
Protocol: as §1, §2

[11] = test system: HCT-116; assay: In vitro cytotoxicity, NCI screen: HCT-116 (Colon); settings: Homo sapiens, read-out: GI50 values (μM conc.)
Protocol: as §1, §2

[12] = test system: SK-MEL-2; assay: In vitro cytotoxicity, NCI screen: SK-MEL-2 (Melanoma); settings: Homo sapiens; SK-MEL-2, Melanoma panel, NCI protocol; read-out: GI50 values (μM conc.)
Protocol: as §1, §2

[13] = test system: UACC-257; assay: In vitro cytotoxicity, NCI screen: UACC-257 (Melanoma); settings: Homo sapiens; UACC-257, Melanoma panel, NCI protocol; read-out: GI50 values (μM conc.)
Protocol: as §1, §2

[14] = test system: A549/ATCC; assay: In vitro cytotoxicity, NCI screen: A549/ATCC (Non-small cell lung); settings: Homo sapiens, Non-small cell lung panel, NCI protocol, read-out: GI50 values (μM conc.)
Protocol: as §1, §2

[15] = test system: CNS cancer cell lines; assay: In vitro activity against CNS cancer cell lines (panel range); settings: Homo sapiens, read-out: GI50 values, range over the listed compounds and the panel
Protocol: as §1, §2

[16] = test system: UO-31; assay: In vitro cytotoxicity, NCI screen: UO-31 (Renal); settings: Homo sapiens; UO-31, Renal panel, NCI protocol; read-out: GI50 values (μM conc.)
Protocol: as §1, §2

[17] = test system: A498; assay: In vitro cytotoxicity, NCI screen: A498 (Renal); settings: Homo sapiens; A498, Renal panel, NCI protocol; read-out: GI50 values (μM conc.)
Protocol: as §1, §2

[18] = test system: NCI-H460; assay: In vitro cytotoxicity, NCI screen: NCI-H460 (Non-small cell lung); settings: Homo sapiens; NCI-H460, Non-small cell lung panel, NCI protocol; read-out: GI50 values (μM conc.)
Protocol: as §1, §2

[19] = test system: MDA-MB-231/ATCC; assay: In vitro cytotoxicity, NCI screen: MDA-MB-231/ATCC (Breast); settings: Homo sapiens, Breast panel, NCI protocol, read-out: GI50 values (μM conc.)
Protocol: as §1, §2

[20] = test system: DU-145; assay: In vitro cytotoxicity, NCI screen: DU-145 (Prostate); settings: Homo sapiens, read-out: GI50 values (μM conc.)
Protocol: as §1, §2

[21] = test system: SF-539; assay: In vitro cytotoxicity, NCI screen: SF-539 (CNS); settings: Homo sapiens, read-out: GI50 values (μM conc.)
Protocol: as §1, §2

[22] = test system: MDA-MB-435; assay: In vitro cytotoxicity, NCI screen: MDA-MB-435 (Melanoma); settings: Homo sapiens; MDA-MB-435, Melanoma panel, NCI protocol; read-out: GI50 values (μM conc.)
Protocol: as §1, §2

[23] = test system: RXF 393; assay: In vitro cytotoxicity, NCI screen: RXF 393 (Renal); settings: Homo sapiens; RXF 393, Renal panel, NCI protocol; read-out: GI50 values (μM conc.)
Protocol: as §1, §2

[24] = test system: 786-0; assay: In vitro cytotoxicity, NCI screen: 786-0 (Renal); settings: Homo sapiens; 786-0, Renal panel, NCI protocol; read-out: GI50 values (μM conc.)
Protocol: as §1, §2

[25] = test system: RPMI-8226; assay: In vitro cytotoxicity, NCI screen: RPMI-8226 (Leukemia); settings: Homo sapiens; RPMI-8226, Leukemia panel, NCI protocol; read-out: GI50 values (μM conc.)
Protocol: as §1, §2

[26] = test system: HS 578T; assay: In vitro cytotoxicity, NCI screen: HS 578T (Breast); settings: Homo sapiens, read-out: GI50 values (μM conc.)
Protocol: as §1, §2

[27] = test system: SK-MEL-28; assay: In vitro cytotoxicity, NCI screen: SK-MEL-28 (Melanoma); settings: Homo sapiens; SK-MEL-28, Melanoma panel, NCI protocol; read-out: GI50 values (μM conc.)
Protocol: as §1, §2

[28] = test system: TK-10; assay: In vitro cytotoxicity, NCI screen: TK-10 (Renal); settings: Homo sapiens; TK-10, Renal panel, NCI protocol; read-out: GI50 values (μM conc.)
Protocol: as §1, §2

[29] = test system: SW-620; assay: In vitro cytotoxicity, NCI screen: SW-620 (Colon); settings: Homo sapiens; SW-620, Colon panel, NCI protocol; read-out: GI50 values (μM conc.)
Protocol: as §1, §2

[30] = test system: NCI-H322M; assay: In vitro cytotoxicity, NCI screen: NCI-H322M (Non-small cell lung); settings: Homo sapiens, Non-small cell lung panel, NCI protocol, read-out: GI50 values (μM conc.)
Protocol: as §1, §2

| Structure (SMILES) | GI50 [1] [µM] | GI50 [4] [µM] | GI50 [5] [µM] | GI50 [6] [µM] | GI50 [7] [µM] | GI50 [8] [µM] | GI50 [9] [µM] | GI50 [10] [µM] | GI50 [11] [µM] | GI50 [13] [µM] | GI50 [14] [µM] | GI50 [15] [µM] | GI50 [16] [µM] | GI50 [17] [µM] | GI50 [19] [µM] | GI50 [20] [µM] | GI50 [21] [µM] | GI50 [22] [µM] | GI50 [23] [µM] | GI50 [24] [µM] | further results |
| --- | --- | --- | --- | --- | --- | --- | --- | --- | --- | --- | --- | --- | --- | --- | --- | --- | --- | --- | --- | --- | --- |
| COc1ccc(/C=C\c2cc(OC)c(OC)c(OC)c2)cc1OCC(=O)Nc1nc2ccccc2s1 [Compound 8a, N1-(1,3-benzothiazol-2-yl)-2-{2-methoxy-5-[(Z)-2-(3,4,5-trimethoxyphenyl)-1-ethenyl]phenoxy}acetamide] | 0.18 to 22.9 | 0.37 | 0.067 | 0.051 | 0.039 | 0.079 | 0.18 | 0.41 | 0.046 | 11 | 0.34 | 0.045 to 18.8 | 0.58 | 0.36 | 0.19 | 0.1 | 0.045 | 0.019 | 0.05 | 7.3 | GI50 [2]: 0.072 µM; GI50 [3]: 0.34 µM; GI50 [12]: 0.18 µM; GI50 [18]: 0.052 µM; GI50 [25]: 0.15 µM |
| COc1ccc(/C=C\c2cc(OC)c(OC)c(OC)c2)cc1OCC(=O)Nc1nc2ccc(F)cc2s1 [Compound 8e, N1-(6-fluoro-1,3-benzothiazol-2-yl)-2-{2-methoxy-5-[(Z)-2-(3,4,5-trimethoxyphenyl)-1-ethenyl]phenoxy}acetamide] | 0.18 to 22.9 | 4.61 | 3.23 | 2.3 | 5.73 | 2.92 | 6.74 | 2.78 | 4.48 | 8.69 | 5.99 | 0.045 to 18.8 | 2.56 | 6.25 | 9.34 | 8.97 | 4.51 | 0.33 | 6.29 | 7.12 | GI50 [26]: > 100 µM; GI50 [27]: > 100 µM; GI50 [2]: 6.82 µM; GI50 [3]: 3.07 µM; GI50 [12]: 8.46 µM; GI50 [28]: 9.89 µM; GI50 [29]: 65 µM; GI50 [18]: 4.36 µM; GI50 [30]: > 100 µM; GI50 [25]: 6.36 µM |
| COc1ccc2nc(NC(=O)COc3cc(/C=C\c4cc(OC)c(OC)c(OC)c4)ccc3OC)sc2c1 [Compound 8g, N1-(6-methoxy-1,3-benzothiazol-2-yl)-2-{2-methoxy-5-[(Z)-2-(3,4,5-trimethoxyphenyl)-1-ethenyl]phenoxy}acetamide] | 0.18 to 22.9 | 5.75 | 4.17 | 2.88 | 6.28 | 3.09 | 4.45 | 3.2 | 3.7 | 63 | 5.19 | 0.045 to 18.8 | 4.31 | 3.5 | 5.4 | 2.04 | 2.84 | 1.16 | 2.5 | 7.52 | GI50 [26]: 4.15 µM; GI50 [27]: 4.41 µM; GI50 [2]: 4.33 µM; GI50 [3]: 3.87 µM; GI50 [12]: 4.07 µM; GI50 [28]: 7.54 µM; GI50 [29]: 5.1 µM; GI50 [18]: 3.73 µM; GI50 [30]: > 100 µM; GI50 [25]: 5.43 µM |
| COc1ccc(/C=C\c2cc(OC)c(OC)c(OC)c2)cc1OCC(=O)Nc1nc2ccc(C(F)(F)F)cc2s1 [Compound 8i, N1-(6-(trifluoromethyl)-1,3-benzothiazol-2-yl)-2-{2-methoxy-5-[(Z)-2-(3,4,5-trimethoxyphenyl)-1-ethenyl]phenoxy}acetamide] | 0.18 to 22.9 | 4.43 | 4.01 | 3.16 | 2.88 | 2.89 | 4.32 | 3.1 | 3.29 | 40 | 4.46 | 0.045 to 18.8 | 3.59 | 2.81 | 3.38 | 2.51 | 2.66 | 1.84 | 2.27 | 6.96 | GI50 [26]: 4.18 µM; GI50 [27]: 3 µM; GI50 [2]: 3.58 µM; GI50 [3]: 3.75 µM; GI50 [12]: 3.98 µM; GI50 [28]: 7.03 µM; GI50 [29]: 4.65 µM; GI50 [18]: 3.55 µM; GI50 [30]: 5.38 µM; GI50 [25]: 5.48 µM |
| COc1ccc(/C=C\c2cc(OC)c(OC)c(OC)c2)cc1OCC(=O)Nc1nc2ccc(OC(F)(F)F)cc2s1 [Compound 8j, N1-(6-(trifluoromethoxy)-1,3-benzothiazol-2-yl)-2-{2-methoxy-5-[(Z)-2-(3,4,5-trimethoxyphenyl)-1-ethenyl]phenoxy}acetamide] | 0.18 to 22.9 | 6.42 | 4.77 | 2.89 | 2.74 | 3.16 | 5.12 | 4.6 | 3.92 | 89.2 | 6 | 0.045 to 18.8 | 4.37 | 3.61 | 5.16 | 4.11 | 2.28 | 1.93 | 2.65 | 54.3 | GI50 [26]: 4.33 µM; GI50 [27]: 4.57 µM; GI50 [2]: 4.36 µM; GI50 [3]: 4.21 µM; GI50 [12]: 3.29 µM; GI50 [28]: 18.6 µM; GI50 [29]: 5.65 µM; GI50 [18]: 4.11 µM; GI50 [30]: > 100 µM; GI50 [25]: 5.83 µM |
| COc1ccc(C2CC(c3cc(OC)c(OC)c(OC)c3)=NN2C(C)=O)cc1OCC(=O)Nc1nc2ccc(C(F)(F)F)cc2s1 (stereo not drawn) [Compound 10i, N1-(6-(trifluoromethyl)-1,3-benzothiazol-2-yl)-2-{5-[1-acetyl-3-(3,4,5-trimethoxyphenyl)-4,5-dihydro-1H-5-pyrazolyl]-2-methoxyphenoxy}acetamide] | 0.18 to 22.9 | 3.31 | 3.36 | 4.02 | 1.7 | 2.71 | 2.92 | 2.17 | 2.39 | 3.77 | 2.16 | 0.045 to 18.8 | 1.93 | 2.78 | 3.11 | 1.82 | 1.75 | 3.08 | 2.09 | 3.58 | GI50 [26]: 2.48 µM; GI50 [27]: 3.56 µM; GI50 [28]: 2.85 µM; GI50 [29]: > 100 µM; GI50 [30]: 3.67 µM; GI50 [25]: 2.21 µM |

Source: patent publication US9102638B2, “Amidobenzothiazoles and process for the preparation thereof” (COUNCIL OF SCIENTIFIC & INDUSTRIAL RESEARCH, priority 2011, dated 2015)
